Data as given in PMC5998989 (Pain Medicine: The Official Journal of the American Academy …, 2017).
Where “and” joins values, the source holds several entries; their conditions need not be identical. Equal entries are not always repeated.

How the values were obtained:
[1] = tested on: cannabinoid receptors / TRPV1 receptors; settings: cited from earlier work
[2] = tested on: healthy female subjects; assay: VAS pain; format: in vivo, human; settings: all subjects
[3] = tested on: rats; settings: ref unpublished data; cited from earlier work
[4] = tested on: patients with PNP; settings: cited from earlier work
[5] = tested on: healthy female subjects; assay: Laser evoked potentials; format: in vivo, human; settings: for Dose at which the maximum postdose response was attained: LEP N2-P2 PtP, once daily multiple dosing; for Time to maximum response (percentage change in LEP N2-P2 PtP amplitudes): after dosing
[6] = tested on: healthy female subjects; assay: Safety and tolerability; format: in vivo, human
[7] = Plasma pharmacokinetics after multiple ascending once daily doses; format: in vivo, human

## CCCCC/C=C\C/C=C\C/C=C\C/C=C\CCCC(=O)NCCO [AEA, N-arachidonoyl-ethanolamine]
[1]
  Potency toward cannabinoid receptors relative to that toward TRPV1 receptors: about 10 times

## O=C(Nc1ccccc1)C1CCN(C(=O)Oc2cccnc2)CC1 [ASP8477]
[2]
  Day 14 predose response for VAS pain scores, % of the maximum response: 23%
  Day 21 predose response for VAS pain scores, % of the maximum response: 4%
[2]; all doses
  Mean difference vs placebo in VAS pain score: –2.55%
[2]; all three doses (overall)
  Mean VAS pain score: 42.23%
[3]
  Effects in nonclinical toxicity studies: effects observed on male fertility
[4]; double-blind randomized withdrawal period
  Difference between ASP8477 and placebo: no difference
[4]; single-blind period, 30 mg BID
  Patients reporting a reduction of ≥30% in their pain: ~60%
[5]; 100 mg day 21 vs placebo day 21, all subjects, session as a random effect
  Mean Difference (95% CI) vs placebo, LEP N2-P2 PtP amplitude, secondary analysis: −1.58 (−3.30 to 0.15) µV
[5]; 100 mg day 21 vs placebo day 21, all subjects, session as replications
  Mean Difference (95% CI) vs placebo, LEP N2-P2 PtP amplitude, primary analysis: −1.58 (−3.30 to 0.14) µV
[5]; 100 mg, day 21, all subjects, linear mixed regression model with session as a random effect
  LS mean PtP (SE), LEP N2-P2 PtP amplitude, secondary analysis: 29.66 (2.80) µV
[5]; 100 mg, day 21, all subjects, linear mixed regression model with session as replications
  LS mean PtP (SE), LEP N2-P2 PtP amplitude, primary analysis: 28.31 (2.75) µV
[5]
  Dose at which the maximum postdose response was attained: 20 mg
  Time to maximum response (percentage change in LEP N2-P2 PtP amplitudes): approximately one to four
[5]; all subjects
  Day 14 predose response for LEP N2-P2 PtP amplitudes, % of the maximum response: 4% and 8%
  Day 21 predose response for LEP N2-P2 PtP amplitudes, % of the maximum response: 19%
  LEP N2-P2 PtP cumulative magnitude of response (AUC): approximately 200
[5]; all subjects, across all doses
  LEP N2-P2 PtP amplitudes, overall mean: 28.51 µV
  Mean difference vs placebo in LEP N2-P2 PtP amplitudes: –1.41 µV
[5]; capsaicin-positive subgroup
  Day 21 predose effect for LEP N2-P2 PtP amplitudes, % of the maximum achievable effect: 40%
[5]; capsaicin-positive subgroup, day 7
  LEP N2-P2 PtP cumulative magnitude of response (AUC): approximately 400
[5]; capsaicin-positive subgroup, day 14
  LEP N2-P2 PtP cumulative magnitude of response (AUC): ~420
[5]; capsaicin-positive subgroup, day 21
  LEP N2-P2 PtP cumulative magnitude of response (AUC): ~470
[6]; ascending doses of 20 mg, 60 mg, and 100 mg once daily
  Tolerability: well tolerated
[6]; during treatment, all doses
  Subjects reporting a treatment-emergent adverse event (TEAE): 83%
  TEAE disorientation, subjects: 8%
  TEAE disturbance in attention and illusion, subjects: 13%
  TEAE dry mouth, subjects: 21%
  TEAE fatigue, subjects: 29%
  TEAE headache, subjects: 29%
  TEAE memory impairment, subjects: 13%
  TEAE vertigo, subjects: 29%
[7]; between 20 mg and 100 mg, multiple ascending doses
  Dose proportionality of PK parameters: more than dose-proportional
[7]; oral dosing
  Absorption following oral dosing: rapidly absorbed
[7]; oral dosing, all doses
  Median tmax (range): 2.1 to 4.1 h

## CNCC[C@H](Oc1cccc2ccccc12)c1cccs1 [duloxetine, reference compound]
[2]
  Day 14 predose response for VAS pain scores, % of the maximum response: 17%
  Day 21 predose response for VAS pain scores, % of the maximum response: 10%
[5]
  Dose at which the maximum postdose response was attained: 30 mg
  Time to maximum response (percentage change in LEP N2-P2 PtP amplitudes): approximately one to four
[5]; all subjects
  Day 14 predose response for LEP N2-P2 PtP amplitudes, % of the maximum response: 26%
  Day 21 predose response for LEP N2-P2 PtP amplitudes, % of the maximum response: 44%
[5]; all subjects, across all doses
  LEP N2-P2 PtP amplitudes, overall mean: 24.71 µV
  Mean difference duloxetine vs ASP8477 in LEP N2-P2 PtP amplitudes: –3.80 µV
  Mean difference vs placebo in LEP N2-P2 PtP amplitudes: –5.21 µV
[5]; capsaicin-positive subgroup
  Day 14 predose effect for LEP N2-P2 PtP amplitudes, % of the maximum achievable effect: 40%
  Day 21 predose effect for LEP N2-P2 PtP amplitudes, % of the maximum achievable effect: around 40%
[5]; postdose
  Time to maximum effect: five
[6]; during treatment, all doses
  TEAE fatigue, subjects: 29%
  TEAE nausea, subjects: 29%
[7]; once daily for seven days
  PK parameters of 60 mg compared with 30 mg: approximately doubled
